Test results taken from US20070213291A1, “Therapeutically useful synthetic oligonucleotides” (priority 1999, published 2007).

How the values were obtained:
[1] = system: Jurkat human leukemia T cells; experiment: Apoptosis by phosphatidylserine/annexin V-FITC flow cytometry; type: cell-based; conditions: M. phlei murA derived sequences
Method: The redistribution of phosphatidylserine in the plasma membrane during apoptosis was measured by flow cytometry using FITC-conjugated annexin V (BD Pharmingen, San Diego, Calif.). NuMA release into the supernatant was determined using a commercial ELISA kit (Oncogen/Calbiochem, Cambridge, Mass.).
Jurkat human leukemia T cells were incubated with 50 μM of 3, 4, 5, 6 and 7 GT base sequences, a 5 base ACGT sequence, 6 base AG, GG, AGT and CGT sequences and a 7 base GG sequence. […]
Jurkat human leukemia T cells were incubated with GT-rich or AC-rich sequences derived from the murA gene of Mycobacterium phlei (GenBank: Accession Number X99776). Inhibition of proliferation was measured by the reduction of MTT as in Example 3, cell cycle arrest was detected by flow cytometry using propidium iodide as in Example 21 and apoptosis was evaluated by flow cytometry using annexin-V-FITC as in Example 23.

caspase 3 [2] = experiment: Active caspase 3 by FITC-conjugated antibody flow cytometry; type: cell-based, human; conditions: Jurkat, 72 h, 100 μg/ml, cytometric (FIG. 2A)
Method: (§1) To determine caspase activation, control and treated cells are washed, fixed, permeabilized and incubated with an FITC-conjugated antibody that recognizes the active form of the caspase (Pharmingen, San Diego, Calif.) using the conditions recommended by the manufacturer. Fluorescence associated with active caspase 3 is analyzed by flow cytometry on a FACSCALIBUR using the program CellQUEST (Becton Dickinson). Alternatively, caspase activation is determined colorimetrically using an assay based on the cleavage of a caspase-specific peptide conjugated to the color reporter molecule p-nitroanilide, which can be quantitated spectrophotometrically at a wavelength of 405 nm.
(§2) Jurkat T cell leukemia cells were incubated for 72 h with 33 base GT SEQ ID NO:66; 11 base GT SEQ ID NO:81 (bases 1-11 of GT SEQ ID NO:66), 11 base GT SEQ ID NO:82 (bases 12-22 of GT SEQ ID NO:66), 11 base GT SEQ ID NO:83 (bases 23-33 of GT SEQ ID NO:66) and 15 base ACG SEQ ID NO:67. Active caspase 3 (17-22 kDa) was determined using FITC conjugated antibody (Clone: C92-605) as in Example 28.

[3] = system: Jurkat human leukemia T cells; experiment: Inhibition of Jurkat human leukemia T cell proliferation (MTT reduction); type: cell-based; conditions: for % INHIBITION of Jurkat human leukemia T cell proliferation: 100 μg/ml sequence, 48 h, 2.5×10^5 cells/ml; for proliferation, cell cycle arrest and apoptosis of Jurkat T cells (summary in words): M. phlei murA derived sequences
How it was run: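 Jurkat cells at 2.5×10^5 cells/ml exposed to 100 μg/ml of 2–45-base A/C/G/T sequences (0 μg/ml control) for 48 h, 37° C, 5% CO2. Viability by MTT reduction read at 570 nm.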

caspase 3 [4] = experiment: Caspase 3 activation, colorimetric (p-nitroanilide peptide cleavage); type: cell-based, human; conditions: Jurkat, 72 h, 100 μg/ml
Method: as §1, §2
Caspase 3 activation also was determined colorimetrically as in Example 28.
Jurkat T cell leukemia cells were incubated for 72 h with 6 base GT SEQ ID NO:25. Caspase 3 activation was determined colorimetrically as in Example 28.

[5] = system: Jurkat human leukemia T cells; experiment: Cell cycle stage in Jurkat cells (propidium iodide flow cytometry); type: cell-based; conditions: Jurkat; for cell cycle arrest: M. phlei murA derived sequences
How it was run: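 Exponentially growing Jurkat cells were exposed for 24 h to 2–45-base A/C/G/T oligonucleotides, or at 1×10^6 cells/ml to 6-base GT and AC strands, alone (heated 10 min, 65 °C) or hybridized 1:1. Detergent-, trypsin-, RNase- and spermine-treated nuclei were propidium iodide-stained and scored for G0/G1, early/mid/late S and G2/M by doublet-discriminating flow cytometry.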

[6] = system: D-17 canine osteosarcoma cells; experiment: Inhibition of D-17 cell proliferation (MTT); type: cell-based; conditions: 100 μg/ml, 48 h, 5×10^5 cells/ml
Method: (§3) Cells were seeded in 6 (1 ml/well), 24 (0.5 ml/well) or 96 (0.1 ml/well) well flat-bottom microplates and were maintained at 37° C. in a 5% CO2 atmosphere. Unless stated otherwise, 2.5×10^5 cells/ml were incubated with 0 μg/ml (control) and 100 μg/ml (treated) of 2 to 45 base sequences containing A, C, G and T for 48 h.
(§4) Cell proliferation was measured using dimethylthiazol-diphenyl-tetrazolium (MTT) reduction (Mosman et al. J. Immunol. Methods 65:55, 1983). MTT was measured at a wavelength of 570 nm using a multiplate spectrophotometer reader (ELX800, Bio-TEK Instruments Inc., Winooski, Vt.).
(§5) D-17 canine osteosarcoma cells and CF-51 canine mammary gland cancer cells are solid tumor models. D-17 canine osteosarcoma cells (5×10^5 cells/ml) (Table 20) and CF-51 canine mammary gland cancer cells (5×10^5 cells/ml) (Table 21) were incubated with 6, 9, 17, 27 and 33 base GT-sequences and with a 15 base ACG sequence.

[7] = system: EL-4 murine T lymphoma cells; experiment: Inhibition of EL-4 cell proliferation (MTT); type: cell-based; conditions: 100 μg/ml, 48 h
Method: as §3, §4
EL-4 murine lymphoma T cells are a suspension tumor model. EL-4 murine lymphoma T cells were incubated with 6, 18, 27 and 33 base GT sequences and with a 15 base ACG sequence (Table 18).

[8] = system: CF-51 canine mammary gland cancer cells; experiment: Inhibition of CF-51 cell proliferation (MTT); type: cell-based; conditions: 100 μg/ml, 48 h, 5×10^5 cells/ml
Method: as §3, §4, §5

Row | Sequence | % at cells in apoptosis [1] [%] | processing of inactive pro-caspase 3 to active caspase 3 (caspase 3 [2]) | % INHIBITION of Jurkat human leukemia T cell proliferation [3] [%] | proliferation, cell cycle arrest and apoptosis of Jurkat T cells (summary in words) [3] | caspase 3 activity greater than in control cells (caspase 3 [4]) | cell cycle arrest [5] | % INHIBITION of D-17 canine osteosarcoma cell proliferation [6] [%] | % INHIBITION of EL-4 murine T lymphoma cell proliferation [7] [%] | % INHIBITION of CF-51 canine mammary gland cancer cell proliferation [8] [%] | % of cells in phase: G0/G1 ([5]; 24 h, 100 μg/ml) [%] | % of cells in phase: G2/M ([5]; 24 h, 100 μg/ml) [%] | % of cells in phase: SE ([5]; 24 h, 100 μg/ml) [%] | % of cells in phase: SL ([5]; 24 h, 100 μg/ml) [%] | % of cells in phase: SM ([5]; 24 h, 100 μg/ml) [%] | Arrest (cell cycle) ([5]; 24 h, 100 μg/ml)
1 | GTGTGTTTGGT (unmodified DNA) [SEQ ID NO:81] | 23 | induced processing of inactive pro-caspase 3 to active caspase 3 | 22 | inhibited proliferation of, induced cell cycle arrest in and induced apoptosis of Jurkat T cells | 77% |  |  |  |  |  |  |  |  |  | 
2 | GGTTTTGTTTG (unmodified DNA) [SEQ ID NO:82] | 25 | induced processing of inactive pro-caspase 3 to active caspase 3 | 20 | inhibited proliferation of, induced cell cycle arrest in and induced apoptosis of Jurkat T cells | 100% | End SE |  |  |  |  |  |  |  |  | 
3 | TTGTTTTTTTTG (unmodified DNA) [SEQ ID NO:83] | 16 | induced processing of inactive pro-caspase 3 to active caspase 3 | 21 | inhibited proliferation of, induced cell cycle arrest in and induced apoptosis of Jurkat T cells | 60% |  |  |  |  |  |  |  |  |  | 
4 | AACCACAAGCCCAAC (DNA, backbone not given here) [SEQ ID NO:67] | 0 | did not induce processing of inactive pro-caspase 3 to active caspase 3 | 4 |  | approximately the same as in control cells | No | 20 | −6 | 20 | 39.6 | 24.6 | 13.5 | 9.5 | 12.8 | None
5 | GTGTGTTTGGTGGTTTTGTTTGTTGTTTTTTTG (DNA, backbone not given here) [SEQ ID NO:66] |  | induced processing of inactive pro-caspase 3 to active caspase 3 |  |  | 105% |  | 23 | −1 | 23 |  |  |  |  |  | 
